Experiments:
ATM = target: T1, ATM (Homo sapiens, UniProt Q13315); test: Assay a): ATM cellular potency (pATM Ser1981 in irradiated HT29 cells); type: cell-based; details: Table 2; HT29 cells, pATM Ser1981 after X-ray irradiation; may be geometric mean of several tests; read-out: Assay a) ATM Cell IC50
T1 construct: endogenous in cells; host or cells: HT29 cells (ECACC #85061109)
Description: (§1) The following assays were used to measure the effects of the compounds of the present invention: a) ATM cellular potency assay; b) PI3K cellular potency assay; c) mTOR cellular potency assay; d) ATR cellular potency assay. During the description of the assays, generally: • i. […] IC50 values were calculated using a smart fitting model in Genedata. […]
The rationale of the pATM assay is to identify inhibitors of ATM in cells. […] The fluorescence is read on the arrayscan imaging platform. […]
Phospho-ATM Ser1981 antibody (Millipore #MAB3806) was diluted 10000 fold in PBS containing 0.05% polysorbate/Tween and 3% BSA and 20 μl was added to each well and incubated over night at r.t. […] After 1 h incubation at r.t., the plates were washed three times with 50 μl/well PBS, using a Biotek EL405 plate washer, and plates were sealed and kept in PBS at 4° C. until read. Plates were read using an ArrayScan VTI instrument, using an XF53 filter with 10× objective. […]

ATR = target: T2, ATR (Homo sapiens, UniProt Q13535); test: Assay b): ATR cellular potency (pChk1 Ser345 in HT29 cells after 4NQO); type: cell-based; details: Table 3 comparative data; HT29 cells, pChk1 Ser345 after 4NQO; may be geometric mean of several tests; read-out: Assay b) ATR Cell IC50
T2 construct: endogenous in cells; host or cells: HT29 cells (ECACC #85061109)
Description: as §1
Phospho-Chk1 Ser 345 antibody (Cell Signalling Technology #2348) was diluted 150 fold in PBS containing 0.05% polysorbate/Tween and 15 μl was added to each well and incubated over night at r.t. […] After 2 h incubation at r.t., the plates were washed three times with 50 μl/well PBS, using a Biotek EL405 plate washer, and plates were then sealed with black plate seals until read. Plates were read using an ArrayScan VTI instrument, using an XF53 filter with 10× objective. […]

T1 sequence (Q13315 whole entry): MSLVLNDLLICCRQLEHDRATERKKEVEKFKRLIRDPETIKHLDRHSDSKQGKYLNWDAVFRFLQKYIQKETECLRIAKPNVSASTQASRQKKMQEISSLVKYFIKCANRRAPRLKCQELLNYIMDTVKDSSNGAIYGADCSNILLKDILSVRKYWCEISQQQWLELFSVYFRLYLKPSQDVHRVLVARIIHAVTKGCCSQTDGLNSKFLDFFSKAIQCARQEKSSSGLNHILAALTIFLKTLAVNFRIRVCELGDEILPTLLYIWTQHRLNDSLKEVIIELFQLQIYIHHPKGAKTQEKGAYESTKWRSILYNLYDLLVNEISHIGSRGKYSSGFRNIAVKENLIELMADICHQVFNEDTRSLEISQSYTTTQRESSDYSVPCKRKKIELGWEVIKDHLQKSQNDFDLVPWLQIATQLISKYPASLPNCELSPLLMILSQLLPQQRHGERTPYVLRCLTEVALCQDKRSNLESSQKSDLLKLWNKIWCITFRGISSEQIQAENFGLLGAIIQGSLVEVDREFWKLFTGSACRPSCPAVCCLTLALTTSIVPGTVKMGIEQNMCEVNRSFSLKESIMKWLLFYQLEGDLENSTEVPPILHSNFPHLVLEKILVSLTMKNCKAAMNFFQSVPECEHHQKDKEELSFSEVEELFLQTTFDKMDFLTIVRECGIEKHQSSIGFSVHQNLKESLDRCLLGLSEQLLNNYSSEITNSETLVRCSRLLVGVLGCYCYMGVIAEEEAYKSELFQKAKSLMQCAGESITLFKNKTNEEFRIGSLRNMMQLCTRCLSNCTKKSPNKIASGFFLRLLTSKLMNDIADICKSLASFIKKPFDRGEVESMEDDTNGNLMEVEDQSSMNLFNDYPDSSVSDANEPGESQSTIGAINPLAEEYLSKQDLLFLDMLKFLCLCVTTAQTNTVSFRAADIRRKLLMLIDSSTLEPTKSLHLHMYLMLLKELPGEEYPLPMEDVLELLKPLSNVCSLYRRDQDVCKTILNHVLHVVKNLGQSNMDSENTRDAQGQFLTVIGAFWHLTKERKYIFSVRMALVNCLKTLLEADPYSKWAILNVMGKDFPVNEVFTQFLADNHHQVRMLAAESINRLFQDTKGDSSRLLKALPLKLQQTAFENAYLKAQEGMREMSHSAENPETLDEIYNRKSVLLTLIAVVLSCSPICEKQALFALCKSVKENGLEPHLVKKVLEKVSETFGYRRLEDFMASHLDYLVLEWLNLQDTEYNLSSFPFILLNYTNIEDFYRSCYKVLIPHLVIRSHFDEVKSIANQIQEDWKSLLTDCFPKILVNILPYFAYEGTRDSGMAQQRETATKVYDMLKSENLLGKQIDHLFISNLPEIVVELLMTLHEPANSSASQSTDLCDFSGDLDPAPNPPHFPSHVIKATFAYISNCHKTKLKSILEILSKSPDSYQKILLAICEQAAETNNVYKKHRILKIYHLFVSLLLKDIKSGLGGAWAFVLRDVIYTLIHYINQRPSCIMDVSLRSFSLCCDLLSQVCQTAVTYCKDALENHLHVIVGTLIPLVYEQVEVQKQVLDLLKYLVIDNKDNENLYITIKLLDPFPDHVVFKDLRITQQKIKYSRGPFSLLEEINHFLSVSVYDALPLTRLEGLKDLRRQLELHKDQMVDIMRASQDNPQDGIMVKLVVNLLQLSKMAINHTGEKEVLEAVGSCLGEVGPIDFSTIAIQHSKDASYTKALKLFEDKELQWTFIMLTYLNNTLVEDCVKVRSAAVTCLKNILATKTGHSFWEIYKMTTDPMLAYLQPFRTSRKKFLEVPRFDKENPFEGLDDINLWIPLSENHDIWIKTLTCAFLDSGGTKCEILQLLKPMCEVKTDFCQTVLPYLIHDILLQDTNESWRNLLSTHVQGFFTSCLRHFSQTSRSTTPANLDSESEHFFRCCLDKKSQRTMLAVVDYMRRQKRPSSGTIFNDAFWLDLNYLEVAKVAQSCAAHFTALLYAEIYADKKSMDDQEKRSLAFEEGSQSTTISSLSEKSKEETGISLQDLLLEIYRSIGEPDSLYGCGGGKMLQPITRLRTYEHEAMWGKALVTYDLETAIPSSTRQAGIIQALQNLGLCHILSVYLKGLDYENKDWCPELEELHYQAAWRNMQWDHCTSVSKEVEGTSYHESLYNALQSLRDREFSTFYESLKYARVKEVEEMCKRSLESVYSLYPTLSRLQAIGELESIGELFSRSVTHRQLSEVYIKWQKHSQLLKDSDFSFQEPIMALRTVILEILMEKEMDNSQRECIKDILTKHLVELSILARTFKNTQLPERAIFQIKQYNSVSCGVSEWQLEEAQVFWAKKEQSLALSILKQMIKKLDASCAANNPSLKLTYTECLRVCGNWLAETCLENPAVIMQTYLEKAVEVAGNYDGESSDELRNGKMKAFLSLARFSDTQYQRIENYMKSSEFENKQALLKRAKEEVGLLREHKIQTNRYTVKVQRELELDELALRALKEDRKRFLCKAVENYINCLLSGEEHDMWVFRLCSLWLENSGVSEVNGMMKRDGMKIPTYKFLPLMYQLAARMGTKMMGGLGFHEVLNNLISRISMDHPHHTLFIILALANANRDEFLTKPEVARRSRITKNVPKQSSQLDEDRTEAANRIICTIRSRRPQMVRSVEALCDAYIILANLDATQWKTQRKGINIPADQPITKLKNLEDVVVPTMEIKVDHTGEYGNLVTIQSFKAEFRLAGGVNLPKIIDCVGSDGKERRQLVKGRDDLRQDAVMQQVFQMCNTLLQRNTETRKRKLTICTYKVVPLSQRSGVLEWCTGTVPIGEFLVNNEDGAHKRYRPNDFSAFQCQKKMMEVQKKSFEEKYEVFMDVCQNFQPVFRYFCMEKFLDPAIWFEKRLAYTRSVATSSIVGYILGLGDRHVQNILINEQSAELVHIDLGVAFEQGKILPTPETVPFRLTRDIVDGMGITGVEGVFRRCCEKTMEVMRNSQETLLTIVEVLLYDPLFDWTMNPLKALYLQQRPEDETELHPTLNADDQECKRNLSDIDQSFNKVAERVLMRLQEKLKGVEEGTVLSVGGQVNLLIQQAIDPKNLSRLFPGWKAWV

Compound	IC50 (ATM) [nM]	IC50 (ATR) [nM]
[2H]c1c(F)c(-c2ccc(OCCCN3CCCCC3)nc2)cc2c1nc([2H])c1c2n(C(C)C)c(=O)n1C [Example 1, 4,6-Dideuterio-7-fluoro-1-isopropyl-3-methyl-8-[6-[3-(1-piperidyl)propoxy]-3-pyridyl]imidazo[4,5-c]quinolin-2-one]	2.5	–
Cn1c(=O)n(C2CCOCC2)c2c3cc(-c4cnn(CCCO)c4)ccc3ncc21 [CN102399218A Compound 60]	–	419
